Values of other authors in publication PMC7259638, “Characterization of the intestinal absorption of morroniside from Cornus officinalis Sieb. et Zucc via a Caco-2 cell monolayer model” (PLoS ONE, 2020).

Test system: Caco-2 cell model
Parameters: method as in PMID 30671130
Settings: cited from earlier work

For `COC(=O)C1=CO[C@@H](O[C@@H]2O[C@H](CO)[C@@H](O)[C@H](O)[C@H]2O)[C@@H]2[C@@H](C)[C@@H](O)C[C@H]12` [loganin], the “intestinal permeability (in words)” value (human intestinal Caco-2 cell model) is given as “good intestinal permeability” and the BCRP substrate status (previous study) is given as “substrate of BCRP”.
